From ChEMBL document CHEMBL1151033, “Tricyclic cephems as inhibitors of human leukocyte elastase. Furo[3,4-c]cepham sulfones” (Bioorg Med Chem Lett, 1995)

Legend:
[1] = target: T1, Neutrophil elastase (Homo sapiens) (UniProt P08246); assay: Inhibitory activity against human leukocyte elastase (HLE) expressed as second order inhibition rate constant
T1 sequence (whole entry): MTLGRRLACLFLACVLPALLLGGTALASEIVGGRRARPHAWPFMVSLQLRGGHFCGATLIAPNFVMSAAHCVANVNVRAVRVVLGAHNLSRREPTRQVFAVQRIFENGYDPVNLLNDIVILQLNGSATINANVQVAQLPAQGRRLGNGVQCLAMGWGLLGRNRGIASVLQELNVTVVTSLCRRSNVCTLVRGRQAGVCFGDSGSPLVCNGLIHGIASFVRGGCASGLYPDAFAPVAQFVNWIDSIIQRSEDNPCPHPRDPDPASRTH

[2] = Hydrolytic stability at 37 degrees Celsius in 50 mM phosphate buffer (2 % v/v MeCN as solubilising vehicle) at pH 7.4; type: physicochemical

| Compound | k on [1] [M⁻¹ s⁻¹] | half-life [2] [h] |
| --- | --- | --- |
| CO[C@H]1C(=O)N2c3c(coc3C(C)(C)C)CS(=O)(=O)[C@H]12 | 500 | 180 |
| CO[C@H]1C(=O)N2c3c(coc3-c3ccccc3)CS(=O)(=O)[C@H]12 | 2000 | 71 |
| CO[C@H]1C(=O)N2c3c(coc3C(C)(C)C)[C@]3(CC3(c3ccccc3)c3ccccc3)S(=O)(=O)[C@H]12 | 8800 | 520 |
| CO[C@H]1C(=O)N2c3c(coc3C(C)(C)C)[C@@H](CC(=O)OC(C)(C)C)S(=O)(=O)[C@H]12 | 1100 |  |
| CO[C@H]1C(=O)N2c3c(coc3C(C)(C)C)[C@@H](C)S(=O)(=O)[C@H]12 | 1000 | 140 |

Continued, values first:

| k on [1] [M⁻¹ s⁻¹] | half-life [2] [h] | Compound |
| --- | --- | --- |
|  | 26 | CO[C@H]1C(=O)N2C(C(=O)c3ccccc3)=C(C)CS(=O)(=O)[C@H]12 |
|  | 104 | CO[C@H]1C(=O)N2C(C(=O)C(C)(C)C)=C(C)CS(=O)(=O)[C@H]12 |
